Measured values taken from patent publication US7604806B2, “Use of a lyophilisate of dedifferentiated plant cells for skin depigmentation and/or lightening” (Biotechmarine, priority 2003, dated 2009).

System: reconstructed epidermes SKINETHIC® integrating melanocytes (type IV)
Experiment: Assay of the melanin on reconstructed epidermes integrating melanocytes
Format: cell-based, human
Description: The cells are grown for 10 days at the air/liquid interface, the growth medium is being changed daily. The thus formed type IV epidermis (=negroid) were used from the 10th day of culture. […] Marine cells obtained in Examples 1 and 2. The assessment of the synthesis of intracellular melanin (qualitative study) was carried out by spectrometry at 475 nm after that the cells were suspended, then dissolved in NaOH (1N) and dimethyl sulfoxide for 30 minutes.

O=c1cc(CO)occ1O [Positive control, kojic acid]
Melanin, % vs negative control (change of the rate of melanin compared to negative control): −44%
Melanin, Absorbance (475 nm) (intracellular melanin, type IV epidermes, duplicate): 0.09 ± 0.01
